One assay relates to NisK. Briefly: Far-Western blotting, b-nisin binding to NisK. The arrangement: species or system Lactococcus lactis. The note with it: membrane proteins of L. lactis MG1363 RKNlacZ, SDS-PAGE, PVDF, denatured and renatured; biotin-labelled nisin, HRP-streptavidin detection. As to the method:
(§1) Lactococcus lactis MG1363 RKNlacZ mutant cells were harvested from 500 ml broth when OD600 reached 0.6–0.7, washed with PBS buffer (pH 7.4) once and resuspended in 20 ml PBS buffer. After lysing by sonication, cells were centrifuged at 6,000 g for 1 h to remove intact cells. The supernatant was ultra-centrifuged at 120,000 g for 2 h to separate soluble (cytoplasmic fraction) and insoluble (cell membrane fraction) proteins.
Nisin was labeled by biotin according to the method shown by ([Koteva et al., 2010]) in Beijing Biosynthesis Biotechnology Co., Ltd.. Briefly, nisin peptide was resolved by NaHCO3 (0.1 M, pH = 9.0) and incubated with biotin. Nisin labeled with biotin was purified by High Performance Liquid Chromatography and was named as b-nisin. The insoluble (cell membrane fraction) proteins were separated from L. lactis MG1363 RKNlacZ mutant cells. Far-Western blotting assays were performed using a modified protocol as described by ([Wu Y. et al., 2007]). Briefly, the insoluble proteins were firstly separated by SDS-PAGE, and transferred to a PVDF membrane as in a standard Western blotting. The proteins in the membrane were then denatured and renatured. […] The horseradish peroxidase (HRP) conjugated streptavidin was used as the secondary antibody, and the lanes indicating b-nisin binding to NisK or NisK mutants were detected by photographic film. […]

The next assay concerns NisK mutant 69–73A5. Briefly: Far-Western blotting, b-nisin binding to NisK mutant. Set-up: species or system Lactococcus lactis. The conditions noted are these: membrane protein of strain 69–73A5; biotin-labelled nisin, HRP-streptavidin. As to the method:
as §1
(§2) Nisin was labeled by biotin according to the method shown by ([Koteva et al., 2010]) in Beijing Biosynthesis Biotechnology Co., Ltd.. Briefly, nisin peptide was resolved by NaHCO3 (0.1 M, pH = 9.0) and incubated with biotin. Nisin labeled with biotin was purified by High Performance Liquid Chromatography and was named as b-nisin. The insoluble (cell membrane fraction) proteins were separated from L. lactis MG1363 RKNlacZ mutant cells. Far-Western blotting assays were performed using a modified protocol as described by ([Wu Y. et al., 2007]). Briefly, the insoluble proteins were firstly separated by SDS-PAGE, and transferred to a PVDF membrane as in a standard Western blotting. The proteins in the membrane were then denatured and renatured. The membrane is then blocked and probed with b-nisin. The horseradish peroxidase (HRP) conjugated streptavidin was used as the secondary antibody, and the lanes indicating b-nisin binding to NisK or NisK mutants were detected by photographic film.
(§3) In order to clarify whether the important residues in NisK affected the interaction between nisin and NisK, the membrane proteins from L. lactis MG1363 RKNlacZ strain and the mutant strain M66A, D72A, Y113A, F133A, 69–73A5, and 74–76A3 were extracted. Nisin was labeled by biotin, and the modified product was named by b-nisin. The interaction between b-nisin and membrane proteins was studied by far-Western blotting assay.

Another assay deals with NisK mutant 74–76A3. The description is as above. Set-up: species or system Lactococcus lactis. The note with it: membrane protein of strain 74–76A3; biotin-labelled nisin, HRP-streptavidin. On the procedure:
as §1, §2, §3

The subject of the next assay is NisK mutant D72A. Described as above. Set-up: species or system Lactococcus lactis. The conditions noted are these: membrane protein of strain D72A; biotin-labelled nisin, HRP-streptavidin. As to the method:
as §1, §2, §3

Another assay has as its system NisK mutant F133A. The assay is described as above. Set-up: species or system Lactococcus lactis. The note with it: membrane protein of strain F133A; biotin-labelled nisin, HRP-streptavidin. On the procedure:
as §1, §2, §3

For a further assay, the system named is NisK mutant M66A. The assay is described as above. The arrangement: species or system Lactococcus lactis. The conditions noted are these: membrane protein of strain M66A; biotin-labelled nisin, HRP-streptavidin. On the procedure: as §1, §2, §3
In another assay the test system is NisK mutant Y113A. Described as above. The conditions noted are these: membrane protein of strain Y113A; biotin-labelled nisin, HRP-streptavidin. The arrangement: species or system Lactococcus lactis. As to the method:
as §1, §2, §3

In assay [1] the target is T1, His6-NisKex (NisK extracellular region) (Lactococcus lactis CV56, UniProt P42707 36-144).
T1 construct: source: E. coli (pET28a), purified
T1 sequence (looked up): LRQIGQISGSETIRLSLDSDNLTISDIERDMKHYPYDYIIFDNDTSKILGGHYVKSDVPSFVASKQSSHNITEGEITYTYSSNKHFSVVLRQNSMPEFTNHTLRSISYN
Briefly: SPR; BIACORE3000; His6-NisKex immobilised on a CM5 chip by amide coupling to 1000 RU; nisin in HBS-T as analyte, 260 to 8.125 μM in twofold dilution, 30 μl/min, 25°C; 1:1 (Langmuir) model with local fitted Rmax. The conditions noted are these: both partners purified. (In general: In SPR one partner is held on a chip, and binding of the other changes the refractive index at the surface.)

Where no end group is shown, it is not given here.

As a reminder, the koff is the rate constant with which the complex falls apart. A low value points to a long-lived complex. Broadly, the kon is the rate constant with which the complex forms. Lower therefore signals slow association.

As for “b-nisin: Nisin labeled with biotin, purified by High Performance Liquid Chromatography (ITSISLCTPGCKTGALMGCNMKTATCHCSIHVSK; ends and bridges not checked; also: labelled with biotin, site not given here)”, in the assay on NisK, the “binding to NisK on far-Western blot” value was “labeled a membrane protein of about 51.5 kDa”. The “binding to NisK mutant on far-Western blot” value in the assay on NisK mutant 69–73A5, in the assay on NisK mutant 74–76A3, in the assay on NisK mutant D72A, in the assay with NisK mutant F133A, with NisK mutant M66A and in the assay on NisK mutant Y113A was “did not show b-nisin binding bands” in each case.

B1: nisin (peptide, UniProt P13068 24-57, looked up)
peptide: ITSISLCTPGCKTGALMGCNMKTATCHCSIHVSK
notes: also called signal peptide nisin; nisin A; source: purified from commercial nisin product (Yinxiang, Zhejiang, China)
Take B1: in assay [1], the koff came to 1 s⁻¹ and the kon stood at 65.2 M⁻¹ s⁻¹.
